Measurements: publication PMC4947982 (Journal of Medicinal Chemistry, 2016)

Details: 5 mM DMSO-solutions

| solubility in DMSO | SMILES |
| --- | --- |
| low solubility | COc1ccc(-c2cn(-c3cc(C(=O)O)cc(-c4ccc(C5CCNCC5)cc4)c3)nn2)cc1OC [Compound 95, 5-(4-(3,4-Dimethoxyphenyl)-1H-1,2,3-triazol-1-yl)-4′-(piperidin-4-yl)-[1,1′-biphenyl]-3-carboxylic Acid] |
| low solubility | O=C(O)c1cc(-c2ccc(C3CCNCC3)cc2)cc(-n2cc(-c3cc4ccccc4o3)nn2)c1 [Compound 101, 5-(4-(Benzofuran-2-yl)-1H-1,2,3-triazol-1-yl)-4′-(piperidin-4-yl)-[1,1′-biphenyl]-3-carboxylic Acid] |
| low solubility | CCCCCOc1ccc(-c2cn(-c3cc(C(=O)O)cc(-c4ccc(C5CCNCC5)cc4)c3)nn2)cc1 [Compound 82, 5-(4-(4-(Pentyloxy)phenyl)-1H-1,2,3-triazol-1-yl)-4′-(piperidin-4-yl)-[1,1′-biphenyl]-3-carboxylic Acid] |
| low solubility | CC(C)(C)c1ccc(-c2cn(-c3cc(C(=O)O)cc(-c4ccc(C5CCNCC5)cc4)c3)nn2)cc1 [Compound 79, 5-(4-(4-(tert-Butyl)phenyl)-1H-1,2,3-triazol-1-yl)-4′-(piperidin-4-yl)-[1,1′-biphenyl]-3-carboxylic Acid] |
